Among the test systems are MDA-N; PC-3; NCI/ADR-RES; NCI-H522; HCC 2998; KM12; RXF 393; A549; IGROV-1; RPMI-8226; SK-MEL-28; SW-620; HOP-62; UACC-257; OVCAR-4; SK-OV-3; COLO 205; HCT-116; NCI-H460; A498.
Common to all, as to assay: DTP human tumour cell line panel, 48 h

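Grown in 96-well plates, cells were treated for 48 hours with each compound at five concentrations. Insufficient inhibition: endpoint recorded as highest concentration tested. GI50: concentration for 50% inhibition of growth.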 Active and inactive are the calls of the source. Rule as the data show it: active = GI50 up to about 1.1 µM and inactive = higher.

The GI50 is the concentration that inhibits growth by half.

On to `CCOC(=O)C(O)(NC(C)=O)C(F)(F)F` (stereo not drawn), for which the GI50 in the assay on MDA-N, in the assay on PC-3, with NCI/ADR-RES, in the assay on NCI-H522, in the assay with HCC 2998 and with KM12 was > 100 µM (inactive) each time. The GI50 in the assay with RXF 393, in the assay on A549, with IGROV-1, in the assay with RPMI-8226, with SK-MEL-28 and in the assay on SW-620 was > 100 µM (inactive) in each case. The GI50 in the assay with HOP-62, with UACC-257, in the assay with OVCAR-4, in the assay on SK-OV-3, in the assay on COLO 205 and in the assay with HCT-116 was > 100 µM (inactive) throughout.

On to `CCOP(=O)(OCC)C(C)(CC)N/C(N)=N/C#N` (stereo not drawn), for which the GI50 in the assay on MDA-N, with PC-3, in the assay on NCI/ADR-RES, in the assay with HCC 2998, in the assay with KM12 and in the assay with RXF 393 was > 100 µM (inactive) in each case. The GI50 in the assay on A549, with NCI-H460, with IGROV-1, in the assay on RPMI-8226, with SK-MEL-28 and in the assay on SW-620 was > 100 µM (inactive) throughout. The GI50 with HOP-62, in the assay on UACC-257, in the assay on OVCAR-4, in the assay on SK-OV-3, with COLO 205 and in the assay with HCT-116 was > 100 µM (inactive) throughout.

As to `COC1OC(C(C)O)C2OC(C)(C)OC12` (stereo not drawn), the GI50 in the assay with MDA-N, in the assay on PC-3, in the assay with NCI/ADR-RES, in the assay on NCI-H522, in the assay on KM12 and with A549 was > 100 µM (inactive) throughout. The GI50 in the assay on A498, in the assay on NCI-H460, in the assay on IGROV-1, in the assay on RPMI-8226, in the assay on SK-MEL-28 and in the assay on SW-620 was > 100 µM (inactive) in each case. Also, the GI50 with HOP-62, in the assay with UACC-257, in the assay with OVCAR-4, with SK-OV-3, with COLO 205 and in the assay with HCT-116 was > 100 µM (inactive) each time.

Consider `Cc1ccc(-c2n[nH]c(=O)n2N2C(=O)c3ccccc3C2=O)cc1`, for which the GI50 in the assay on MDA-N, with PC-3, in the assay on NCI/ADR-RES, in the assay on NCI-H522, in the assay on HCC 2998 and in the assay on KM12 was > 100 µM (inactive) throughout. Further, the GI50 in the assay on RXF 393, in the assay with A549, with NCI-H460, in the assay with IGROV-1, with RPMI-8226 and with SK-MEL-28 was > 100 µM (inactive) in each case. In addition, the GI50 in the assay on SW-620, in the assay with HOP-62, in the assay on UACC-257 and in the assay on HCT-116 was > 100 µM (inactive) each time.

Consider `NC(CCCCCP(=O)(c1ccccc1)C1C=CC=CC1)C(=O)O` (stereo not drawn), for which the GI50 in the assay with MDA-N was > 100 µM (inactive); in the assay on PC-3, > 100 µM (inactive); in the assay with NCI/ADR-RES, > 100 µM (inactive); with NCI-H522, > 100 µM (inactive); in the assay on HCC 2998, > 10 µM (inactive); in the assay with KM12, > 100 µM (inactive). Moreover, the GI50 in the assay on RXF 393, in the assay on A549, in the assay on NCI-H460, with IGROV-1, with RPMI-8226 and with SK-MEL-28 was > 100 µM (inactive) in each case. Besides, the GI50 in the assay with SW-620, in the assay on UACC-257, in the assay with OVCAR-4, with SK-OV-3, in the assay on COLO 205 and in the assay on HCT-116 was > 100 µM (inactive) throughout.

As to `COc1ccc(-c2c(C(C)=O)c(C)n(C3OC(CO)C(O)C(O)C3O)c(=S)c2C#N)cc1` (stereo not drawn), the GI50 with MDA-N is 71.6 µM (inactive); in the assay on PC-3 it was 47 µM (inactive); in the assay with NCI/ADR-RES it was 93.5 µM (inactive); in the assay with KM12 it was 90.6 µM (inactive); in the assay on RXF 393 it was 73.1 µM (inactive); in the assay on A549, > 100 µM (inactive). Further, the GI50 with NCI-H460 was > 100 µM (inactive); in the assay on IGROV-1, > 100 µM (inactive); in the assay with RPMI-8226 it was 83.6 µM (inactive); in the assay with SK-MEL-28, 44.6 µM (inactive); in the assay with SW-620, 78.5 µM (inactive); in the assay with HOP-62, > 100 µM (inactive). Further, the GI50 in the assay with UACC-257 was > 100 µM (inactive); in the assay with OVCAR-4, 95.5 µM (inactive); in the assay with SK-OV-3, > 100 µM (inactive); with COLO 205, > 100 µM (inactive); in the assay on HCT-116, 86.9 µM (inactive).

As for `COc1ccc(C[C@@H]2OC3(C=CC(=O)CC3Sc3ccccc3)O[C@H]2Cc2ccc(OC)cc2)cc1` (stereo partly drawn), the GI50 in the assay on MDA-N was 1.52 µM (inactive); with PC-3 it was 1.72 µM (inactive); with NCI/ADR-RES, 1.48 µM (inactive); in the assay with KM12, 2.11 µM (inactive); in the assay on RXF 393 it was 0.107 µM (active); in the assay on A549 it was 3.23 µM (inactive). The GI50 in the assay with A498 is 4.08 µM (inactive); in the assay with NCI-H460, 3.01 µM (inactive); in the assay with IGROV-1, 0.904 µM (active); with RPMI-8226, 0.31 µM (active); in the assay on SK-MEL-28, 1.86 µM (inactive); with SW-620, 0.303 µM (active). Besides, the concentration for 50% growth inhibition (GI50) with HOP-62 is 0.432 µM (active); with UACC-257, 1.47 µM (inactive); in the assay with OVCAR-4, 1.6 µM (inactive); with SK-OV-3, 3.15 µM (inactive); in the assay on COLO 205, 1.85 µM (inactive).

As to `O=C(OCCN=C1c2ccccc2CCc2ccccc21)c1ccccc1`, the GI50 in the assay with MDA-N, in the assay on PC-3, in the assay on NCI/ADR-RES, in the assay with HCC 2998, in the assay on KM12 and in the assay with RXF 393 was > 100 µM (inactive) each time. For the same compound, the GI50 is > 100 µM (inactive) with A549; > 100 µM (inactive) in the assay on NCI-H460; > 100 µM (inactive) with IGROV-1; 13 µM (inactive) with RPMI-8226; > 100 µM (inactive) in the assay with SK-MEL-28; > 100 µM (inactive) in the assay with SW-620. Further, the GI50 in the assay with HOP-62, in the assay on UACC-257, in the assay on OVCAR-4, with SK-OV-3, in the assay with COLO 205 and with HCT-116 was > 100 µM (inactive) in each case.

With `CSC1=N/C(=C\c2ccc(C)cc2)C(=O)N1CN1CCCCC1`, the GI50 with MDA-N was > 100 µM (inactive); in the assay on PC-3, 72.4 µM (inactive); in the assay on NCI/ADR-RES, 84.7 µM (inactive); in the assay with NCI-H522 it was > 100 µM (inactive); with KM12, > 100 µM (inactive); in the assay with A549 it was 83.4 µM (inactive). Also, the GI50 in the assay with A498 was > 100 µM (inactive); in the assay with IGROV-1, 46.6 µM (inactive); in the assay with RPMI-8226 it was 32.3 µM (inactive); in the assay on SK-MEL-28, > 100 µM (inactive); in the assay on SW-620 it was 44.7 µM (inactive); in the assay with HOP-62, > 100 µM (inactive). Moreover, the GI50 in the assay on OVCAR-4 was 22.4 µM (inactive); in the assay on SK-OV-3 it was > 100 µM (inactive); in the assay on COLO 205, 73.1 µM (inactive); with HCT-116, 84.9 µM (inactive).

On to `COC(=O)CNCC1OC2OC(C)(C)OC2C1N=[N+]=[N-]` (stereo not drawn), for which the GI50 with MDA-N, in the assay with PC-3, in the assay with NCI/ADR-RES, with KM12, in the assay with RXF 393 and in the assay with A549 was > 100 µM (inactive) throughout. Moreover, the GI50 in the assay on A498, with NCI-H460, with IGROV-1, with RPMI-8226, with SK-MEL-28 and with SW-620 was > 100 µM (inactive) in each case. Moreover, the GI50 was > 100 µM (inactive) in the assay with HOP-62; > 100 µM (inactive) in the assay with UACC-257; > 100 µM (inactive) in the assay with OVCAR-4; > 100 µM (inactive) in the assay on SK-OV-3; > 10 µM (inactive) with COLO 205; > 100 µM (inactive) in the assay on HCT-116.

Consider `O=C(O)CC(O)(C(=O)O)C(O)C(=O)O` (stereo not drawn), for which the GI50 in the assay on MDA-N is 617 µM (inactive); with PC-3, > 1000 µM (inactive); in the assay on NCI/ADR-RES, > 1000 µM (inactive); in the assay on NCI-H522, > 1000 µM (inactive); in the assay with HCC 2998, > 1000 µM (inactive); in the assay with KM12, > 1000 µM (inactive). In addition, the GI50 in the assay with RXF 393 was > 1000 µM (inactive); in the assay on A549 it was > 1000 µM (inactive); in the assay on NCI-H460 it was > 1000 µM (inactive); in the assay with IGROV-1, > 1000 µM (inactive); in the assay with RPMI-8226, 787 µM (inactive); in the assay with SK-MEL-28 it was > 1000 µM (inactive). Besides, the GI50 with SW-620, in the assay with HOP-62, in the assay with UACC-257, with OVCAR-4, in the assay on SK-OV-3 and with COLO 205 was > 1000 µM (inactive) throughout. Further, the GI50 in the assay on HCT-116 was > 1000 µM (inactive).

The values above are taken from ChEMBL document CHEMBL1201862, “PubChem BioAssay data set” (2004).
